Assay results: patent US5869457A, “Modified proteins and their use for controlling viral infections” (Rijksuniversiteit Te Groningen, priority 1991, dated 1999)

Key:
[1] = system: OKT4A epitope of the CD4 receptor; experiment: CD4 immunofluorescence assay, OKT4A mAb-CD4 interaction on MT-4 cells; conditions: at 25 μg/ml
[2] = system: plasma; experiment: anticoagulant action determined as APTT; assay type: biochemical
Procedure: The compounds were dissolved in PBS of pH 7.2 and 30 μl were added to 270 μl of plasma.
APTT=activated partial thromboplastin time (seconds) APTT was determined electromechanically using standard methods.

Compound | inhibition of OKT4A mAb-CD4 interaction [1] | Anticoagulant action, APTT ([2]; 0.01 μg/ml) [s] | Anticoagulant action, APTT ([2]; 0.1 μg/ml) [s] | Anticoagulant action, APTT ([2]; 1 μg/ml) [s] | Anticoagulant action, APTT ([2]; 3 μg/ml) [s] | Anticoagulant action, APTT ([2]; 5 μg/ml) [s] | Anticoagulant action, APTT ([2]; 10 μg/ml) [s] | Anticoagulant action, APTT ([2]; 100 μg/ml) [s] | anticoagulant activity as side effect ([2]; in words)
O=C(O)C1=CC(=C(c2ccc(O)c(C(=O)O)c2)c2ccc(O)c(C(=O)O)c2)C=CC1=O [Aurintricarboxylic acid (ATA), Aurintricarboxylic acid] | completely inhibited |  |  |  |  |  |  |  | 
Heparin |  | 38.4 | 40.3 | 40.5 | 65 | 140 | 220 | > 400 | serious anticoagulant activity
